Assay results reported in publication PMC10970924 (Life, 2024).
Like-named read-outs stand apart in the source and are kept apart here.

Legend:
HCT-116 [1] = assay: Mitochondrial membrane potential, rhodamine 123 flow cytometry; assay type: cell-based, human; details: tumor cells (HCT-116 in Figure 4a), 72 h, IC50 or higher
Description: Cells were seeded in a 12-well plate at a density of 1 × 10^5 cells/well and incubated for 24 h at 37 °C in a humid atmosphere with 5% CO2 prior to treatment. Cells were bathed in complete DMEM media containing the respective compounds, using a solvent (dH2O/DMSO) as a negative control. After 72 h, the nutrient medium over cells containing the floating cells was collected into tubes, and then the adherent cells were trypsinized and added to the fraction of floating cells. Cell suspensions were then centrifuged, and the pellet was suspended in phosphate-buffered saline (PBS) to a final density of 5 × 10^5 cells/mL. Cell suspension in a volume of 250 μL and 500 nM rhodamine 123 were added to a rounded-well plate, followed by incubation for 30 min at 25° C. Measurements were conducted using flow cytometry on the Millipore Guava EasyCyte HT Flow Cytometer System in a green fluorescent channel.

[2] = system: chicken erythrocyte genomic DNA; assay: Spectrophotometry of complexation with genomic DNA
Description: Chicken erythrocyte genomic DNA (Reanal, Budapest, Hungary) solution was prepared by dissolving 6 mg of DNA in 3 mL of Tris-EDTA (TE) buffer and allowed to stay for 2 days at a temperature of +2 °C until clear. The concentration of the initial DNA solution was measured using a nanodrop spectrophotometer (DeNovix, Wilmington, DE, USA). A series of DNA concentrations were prepared in TE buffer (60, 30, 20, 15 μg/mL). […] As a control, an equivalent amount of TE buffer in place of the genomic DNA was added to the samples. […] The results were then computed and statistically analyzed using GraphPad Prism software 8.0.1.

HCT-116 and MCF-7 cells = assay: Confocal microscopy of intracellular localization; assay type: cell-based, human; details: DOX-1 and DOX-2 5 μM, 24 h; DOX 50 μM, 2 h
Description: A total of 24 h later, the studied compounds DOX-1 and DOX-2 at a concentration of 5 µM were added. Following another 24 h incubation period, Hoechst 33342 (Roche) was added, reaching a final concentration of 1.5 µg/mL. After 15 min, the dye-containing media was removed, and DBBS was added. The plate was subsequently analyzed using confocal microscopy (Zeiss LSM800, Jena, Germany).

PC-3 cells = details: for Olive Moment / Tail Area / Tail DNA % / Tail Intensity / Tail Length / Tail Moment: 3 days; for DNA breaks in the Comet assay (in words): PC-3, 72 h
Description: PC-3 and MCF-7 cells were seeded into 6-well plates at a concentration of 15,000 cells/mL. […] Cells were trypsinized and washed, then placed in 0.7% low melting point agarose and mounted on glass slides (200 000 cells/sample). Slides were treated with lysis solution (2.5 M NaCl, 0.1 M disodium EDTA, 1% Triton X-100, 10 mM Tris base, 10% DMSO, pH 10) for 1 h at 4 °C. Next, the samples were placed in an alkaline solution (12 g of NaOH brought to 1 L with water, disodium EDTA 0.2 M, pH >13) and incubated for 30 min at room temperature. Afterward, the slides were washed with electrophoresis 1X TBE buffer (10X TBE: 9.3 g disodium salt EDTA, 108 g Tris base, and 55 g boric acid per 1 L of water) twice and placed in the electrophoresis chamber. Electrophoresis was carried out under neutral conditions in 1X TBE buffer for 30 min at 31 V (at the rate of 1 V/cm). Afterward, the slides were washed in PBS (Ca free, Mg free) 2 times for 5 min, fixed in 96% ethanol for 5 min, and dried. Before analysis, 50 μL of SYBR Green solution (1μL stock + 10 mL TE buffer) was applied to the slides. Using an Observer Z1 fluorescent optical microscope (Carl Zeiss, Jena, Germany), photographs of cells were taken and analyzed in the ImageJ program (Plugin OpenComet).
“Tail moment” (TM) and “Olive moment” (OTM) were calculated using the following formula:(1) TM=(Fluor in tail/Fluor total )×tail lenght (2) OTM=(Tail mean−Head mean)×(Tail DNA %)/100.

NCI-H322M = assay: MTS cytotoxicity assay; details: Homo sapiens, 72 h, read-out: Cytotoxic concentration IC50, NCI-H322M
Excerpt: (§1) The study utilized human cell lines including PC-3 (human prostate adenocarcinoma), HSF (primary human skin fibroblasts), MDA-MB-231 (estrogen-negative breast adenocarcinoma), MCF-7 (estrogen-positive breast adenocarcinoma), MSC (multipotent stem cells derived from adipose tissue), SF-539 (brain gliosarcoma), SNB-19 (glioblastoma), A-498 (kidney carcinoma), M-14 (human melanoma), NCI-H322-M (primary bronchioalveolar carcinoma), HCT-15 (colon adenocarcinoma), and HCT-116 (colorectal intestinal carcinoma). We also used immortalized C2C12 mouse myoblasts (ATCC—CRL-1772). Cancer cell lines were obtained from the ATCC collection and generously provided by the Fox Chase Cancer Center (Philadelphia, USA). Conditionally normal cells, including skin fibroblasts and multipotent stem cells, were isolated by our group from postoperative materials (skin and subcutaneous fat) obtained from a conditionally healthy donor. Reagents and consumables for cell culture work were purchased from PanEco (Russia).
(§2) The cytotoxicity of the compounds under study was assessed using MTS assay on cell cultures. Cells were seeded into 96-well plates at a concentration of 10,000–20,000 cells/mL. After 24 h, gradient concentrations of the compounds were added to the culture medium and the plates were incubated for 72 h. Subsequently, the culture medium was replaced with MTS reagents (Sigma-Aldrich, Burlington, MA, USA) (MTS:PMS (0.18:0.0092 mg/mL)) and dissolved in phenol-free RPMI 1640 medium. After 2 h of incubation, the resulting water-soluble formazan was measured using the TECAN Infinite M200 Pro microplate reader at wavelengths of 555/750 nm. As a control, equivalent volumes of the solvents in which each compound was dissolved (dH2O/DMSO) were used. To calculate the percentage of viable cells relative to the control, which was considered 100%, dose-response curves were plotted against the logarithm of the compound concentration. The concentration of the compound at which cell growth is inhibited by 50% relative to the control was taken as the inhibitory concentration IC50 and calculated using Origin Pro software 8.0.1. The study was conducted in triplicates and in three independent repetitions.

HCT-116 [3] = assay: MTS cytotoxicity assay; details: for IC50: Homo sapiens; for Times reduced cytotoxicity compared to doxorubicin, HCT-116 / Selectivity index IC50 HSF/IC50 HCT-116: MTS assay; for Selectivity index IC50 HSF/IC50 HCT-116: from the mean IC50 value for HSF cells; for IC25, HCT-116 / IC75, HCT-116: test concentration selected based on MTS data
Excerpt: as §1, §2

A-498 = assay: MTS cytotoxicity assay; details: Homo sapiens, A498, 72 h, read-out: Cytotoxic concentration IC50, A-498
Excerpt: as §1, §2

SNB-19 = assay: MTS cytotoxicity assay; details: Homo sapiens, SNB-19, 72 h, read-out: Cytotoxic concentration IC50, SNB-19
Excerpt: as §1, §2

PC-3 = assay: MTS cytotoxicity assay; details: for IC50: Homo sapiens; for Selectivity index IC50 HSF/IC50 PC-3: MTS assay, from the mean IC50 value for HSF cells
Excerpt: as §1, §2

[4] = system: C2C12 (immortalized mouse myoblasts); assay: MTS cytotoxicity assay; details: for Inhibition of C2C12 cell proliferation: MTS assay, sufficiently high concentrations
Excerpt: as §1, §2

M14 = assay: MTS cytotoxicity assay; details: Homo sapiens, M14, 72 h, read-out: Cytotoxic concentration IC50, M14
Excerpt: as §1, §2

MCF-7 cells = assay: Cell cycle analysis, Hoechst 33342 flow cytometry; assay type: cell-based, human; details: MCF-7, 72 h
Description: MCF-7 cells were seeded at a density of 15,000 cells/mL in a 6-well plate in 3 mL of complete medium. After 24 h, the medium was replaced with one containing the studied compounds and incubated for 72 h. After incubation, cells were stained with Hoechst 33342 (Roche, Basel, Switzerland) at a concentration of 6 μg/mL for 30 min in the CO2 incubator. The nutrient medium over cells containing the floating cells was collected into tubes, and then the remaining adherent cells were trypsinized and added to the tubes with the floating cells. After this, cells were centrifuged and washed with a DPBS buffer. The fluorescence intensity of cells was measured using the flow cytofluorimeter BD FACSCalibur™ (BD Biosciences, Franklin Lakes, NJ, USA). To identify single cells, direct scatter (FS) and side scatter (SS) measurements were used, and cell doublets were excluded from the analysis using pulse processing based on the area-to-pulse width ratio.

[5] = HCT-116, 72 h, read-out: Cytotoxic concentration IC50, HCT-116
[6] = HCT-116, read-out: IC50, HCT-116
[7] = PC-3, 72 h, read-out: Cytotoxic concentration IC50, PC-3

COc1cccc2c1C(=O)c1c(O)c3c(c(O)c1C2=O)CC(O)(C(=O)CO)CC3OC1CC(NC(=O)c2cnc(C)c3c2COC(C)(C)O3)C(O)C(C)O1 (centres unmarked) [DOX-1, N-(3-hydroxy-2-methyl-6-((3,5,12-trihydroxy-3-(2-hydroxyacetyl)-10-methoxy-6,11-dioxo-1,2,3,4,6,11-hexahydrotetracen-1-yl)oxy)tetrahydro-2H-pyran-4-yl)-2,2,8-trimethyl-4H-[1,3]dioxino[4,5-c]pyridine-5-carboxamide]
Effect on mitochondrial potential ΔΨ (in words) (HCT-116 [1]): significant number of cells with reduced mitochondrial potential | Changes in the optical spectrum on interaction with genomic DNA (in words) [2]: no significant changes | Shift of the Absorption Maximum Relative to Control ([2]; DNA concentration 15 µg/mL): 2 nm | Shift of the Absorption Maximum Relative to Control ([2]; DNA concentration 20 µg/mL): 1 nm | Shift of the Absorption Maximum Relative to Control ([2]; DNA concentration 30 µg/mL): 4 nm | Shift of the Absorption Maximum Relative to Control ([2]; DNA concentration 60 µg/mL): 2 nm | melting point: 165 to 167 °C (dec.) | Penetration into the cell nuclei (in words) (HCT-116 and MCF-7 cells): do not penetrate the cell nuclei | Olive Moment (PC-3 cells; PC-3, 3 µM (IC25)): 2.48 | Tail Area (PC-3 cells; PC-3, 3 µM (IC25)): 1094 | Tail DNA % (PC-3 cells; PC-3, 3 µM (IC25)): 6.7% | Tail Intensity (PC-3 cells; PC-3, 3 µM (IC25)): 34 | Tail Length (PC-3 cells; PC-3, 3 µM (IC25)): 10 | Tail Moment (PC-3 cells; PC-3, 3 µM (IC25)): 1.07 | Olive Moment (PC-3 cells; PC-3, 6.1 µM (IC50)): 2.24 | Tail Area (PC-3 cells; PC-3, 6.1 µM (IC50)): 1196 | Tail DNA % (PC-3 cells; PC-3, 6.1 µM (IC50)): 6.7% | Tail Intensity (PC-3 cells; PC-3, 6.1 µM (IC50)): 30 | Tail Length (PC-3 cells; PC-3, 6.1 µM (IC50)): 17 | Tail Moment (PC-3 cells; PC-3, 6.1 µM (IC50)): 1.36 | Olive Moment (PC-3 cells; PC-3, 11.3 µM (IC70)): 3.79 | Tail Area (PC-3 cells; PC-3, 11.3 µM (IC70)): 1403 | Tail DNA % (PC-3 cells; PC-3, 11.3 µM (IC70)): 11.4% | Tail Intensity (PC-3 cells; PC-3, 11.3 µM (IC70)): 37 | Tail Length (PC-3 cells; PC-3, 11.3 µM (IC70)): 12 | Tail Moment (PC-3 cells; PC-3, 11.3 µM (IC70)): 1.87 | DNA breaks in the Comet assay (in words) (PC-3 cells): do not cause DNA breaks | IC50 (NCI-H322M): 7200 ± 4760 nM | IC50 (HCT-116 [3]; [5]): 4630 ± 550 nM | IC50 (HCT-116 [3]; [6]): 4000 nM | Times reduced cytotoxicity compared to doxorubicin, HCT-116 (HCT-116 [3]): 4.2 | Selectivity index IC50 HSF/IC50 HCT-116 (HCT-116 [3]): 1.28 ± 0.18 | IC25, HCT-116 (HCT-116 [3]): 1700 nM | IC75, HCT-116 (HCT-116 [3]): 9000 nM | IC50 (A-498): 4460 ± 3190 nM | IC50 (SNB-19): 5080 ± 3400 nM | IC50 (PC-3; [7]): 5410 ± 880 nM | IC50 (PC-3; PC-3, read-out: IC50, PC-3): 6100 nM | Selectivity index IC50 HSF/IC50 PC-3 (PC-3): 1.12 ± 0.24 | IC25, PC-3 (PC-3; concentration and corresponding IC used in the Comet assay): 3 µM (IC25) | Inhibition of C2C12 cell proliferation [4]: ≥ 95% | IC50 (M14): 4290 ± 1560 nM

COc1cccc2c1C(=O)c1c(O)c3c(c(O)c1C2=O)C[C@@](O)(C(=O)CO)C[C@@H]3O[C@H]1C[C@H](N)[C@H](O)[C@H](C)O1 [DOX, Doxorubicin, reference compound]
Effect on mitochondrial potential ΔΨ (in words) (HCT-116 [1]): significant number of cells with reduced mitochondrial potential | Changes in the optical spectrum on interaction with genomic DNA (in words) [2]: significant changes | Penetration into the cell nuclei (in words) (HCT-116 and MCF-7 cells): efficiently permeates and accumulates in the cell nuclei | Olive Moment (PC-3 cells; PC-3, 0.5 µM (IC25)): 8.13 | Tail Area (PC-3 cells; PC-3, 0.5 µM (IC25)): 2215 | Tail DNA % (PC-3 cells; PC-3, 0.5 µM (IC25)): 22.7% | Tail Intensity (PC-3 cells; PC-3, 0.5 µM (IC25)): 66 | Tail Length (PC-3 cells; PC-3, 0.5 µM (IC25)): 51 | Olive Moment (PC-3 cells; PC-3, 1.1 µM (IC50)): 11.64 | Tail Area (PC-3 cells; PC-3, 1.1 µM (IC50)): 1902 | Tail DNA % (PC-3 cells; PC-3, 1.1 µM (IC50)): 35.2% | Tail Intensity (PC-3 cells; PC-3, 1.1 µM (IC50)): 74 | Tail Length (PC-3 cells; PC-3, 1.1 µM (IC50)): 51 | DNA breaks in the Comet assay (in words) (PC-3 cells): induces DNA breaks | IC50 (NCI-H322M): 2460 ± 1180 nM | IC50 (HCT-116 [3]; [5]): 1100 ± 640 nM | IC50 (HCT-116 [3]; [6]): 1000 nM | IC25, HCT-116 (HCT-116 [3]): 250 nM | IC75, HCT-116 (HCT-116 [3]): 2500 nM | IC50 (A-498): 350 ± 60 nM | IC50 (SNB-19): 100 ± 40 nM | IC50 (PC-3; [7]): 1050 ± 620 nM | IC50 (PC-3; PC-3, read-out: IC50, PC-3): 1100 nM | Inhibition of C2C12 cell proliferation [4]: ≥ 95% | IC50 (M14): 160 ± 20 nM | Effect on the cell cycle (in words) (MCF-7 cells): cell-cycle arrest in the G2M phase

COc1cccc2c1C(=O)c1c(O)c3c(c(O)c1C2=O)CC(O)(C(=O)CO)CC3OC1CC(NC(=O)/C=C/c2cnc(C)c3c2COC(C)(C)O3)C(O)C(C)O1 (centres unmarked) [DOX-2, (E)-N-(3-hydroxy-2-methyl-6-((3,5,12-trihydroxy-3-(2-hydroxyacetyl)-10-methoxy-6,11-dioxo-1,2,3,4,6,11-hexahydrotetracen-1-yl)oxy)tetrahydro-2H-pyran-4-yl)-3-(2,2,8-trimethyl-4H-[1,3]dioxino[4,5-c]pyridin-5-yl)acrylamide]
Changes in the optical spectrum on interaction with genomic DNA (in words) [2]: no significant changes | Shift of the Absorption Maximum Relative to Control ([2]; DNA concentration 15 µg/mL): 0 nm | Shift of the Absorption Maximum Relative to Control ([2]; DNA concentration 20 µg/mL): 0 nm | Shift of the Absorption Maximum Relative to Control ([2]; DNA concentration 30 µg/mL): 0 nm | Shift of the Absorption Maximum Relative to Control ([2]; DNA concentration 60 µg/mL): 1 nm | melting point: 175 to 176 °C (dec.) | Penetration into the cell nuclei (in words) (HCT-116 and MCF-7 cells): do not penetrate the cell nuclei | IC50 (NCI-H322M): > 200000 nM | IC50 (HCT-116 [3]; [5]): 1430 ± 290 nM | Times reduced cytotoxicity compared to doxorubicin, HCT-116 (HCT-116 [3]): 1.3 | Selectivity index IC50 HSF/IC50 HCT-116 (HCT-116 [3]): >140 | IC50 (A-498): 41700 ± 7420 nM | IC50 (SNB-19): 870 ± 100 nM | IC50 (PC-3; [7]): 1970 ± 310 nM | Selectivity index IC50 HSF/IC50 PC-3 (PC-3): >100 | inhibition at 200 µM ([4]; Mus musculus, C2C12, read-out: Inhibition of C2C12): ≤ 60% | IC50 (M14): 2610 ± 240 nM | Effect on the cell cycle (in words) (MCF-7 cells): cell-cycle arrest in the G2M phase
